From ChEMBL document CHEMBL1201862, “PubChem BioAssay data set” (2004)
Each block holds one compound with its values, some of them ahead of it. Activity calls are given as the source filed them.

What was measured:
[1] = target: Mu-type opioid receptor (Homo sapiens, UniProt P35372); assay type: functional, cell-based;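 further: U2OS cells with beta-arrestin recruitment to OPRM1 by beta-gal complementation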
[2] = target: 5-hydroxytryptamine receptor 2A (Mus musculus, UniProt P35363); assay type: functional, cell-based;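 further: CHO-K1 cells with tagged receptor and beta-arrestin; agonist potency measured as compound-induced activation of the receptor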
[3] = target: 26S proteasome non-ATPase regulatory subunit 14 (Homo sapiens, UniProt O00487); assay: inhibition of proteasome subunit RPN11 – biochemical, fluorescence polarization, uHTS hits, confirmation (AID 602368); assay type: functional
[4] = target: 72 kDa type IV collagenase (Homo sapiens, UniProt P08253); assay: Dose Response validation of uHTS RPN11 inhibitor hits using a MMP-2 Fluorescence assay.; assay type: functional
[5] = target: T1, Tyrosine-protein phosphatase non-receptor type 22 (Homo sapiens, UniProt Q9Y2R2); assay: PTPN22 enzyme inhibitors – biochemical, fluorescence, LYP catalytic domain, selectivity assay for LMPTP inhibitor project, dose response (AID 652006); assay type: functional; conditions: read-out: IC50_Mean
T1 sequence (Q9Y2R2 whole entry): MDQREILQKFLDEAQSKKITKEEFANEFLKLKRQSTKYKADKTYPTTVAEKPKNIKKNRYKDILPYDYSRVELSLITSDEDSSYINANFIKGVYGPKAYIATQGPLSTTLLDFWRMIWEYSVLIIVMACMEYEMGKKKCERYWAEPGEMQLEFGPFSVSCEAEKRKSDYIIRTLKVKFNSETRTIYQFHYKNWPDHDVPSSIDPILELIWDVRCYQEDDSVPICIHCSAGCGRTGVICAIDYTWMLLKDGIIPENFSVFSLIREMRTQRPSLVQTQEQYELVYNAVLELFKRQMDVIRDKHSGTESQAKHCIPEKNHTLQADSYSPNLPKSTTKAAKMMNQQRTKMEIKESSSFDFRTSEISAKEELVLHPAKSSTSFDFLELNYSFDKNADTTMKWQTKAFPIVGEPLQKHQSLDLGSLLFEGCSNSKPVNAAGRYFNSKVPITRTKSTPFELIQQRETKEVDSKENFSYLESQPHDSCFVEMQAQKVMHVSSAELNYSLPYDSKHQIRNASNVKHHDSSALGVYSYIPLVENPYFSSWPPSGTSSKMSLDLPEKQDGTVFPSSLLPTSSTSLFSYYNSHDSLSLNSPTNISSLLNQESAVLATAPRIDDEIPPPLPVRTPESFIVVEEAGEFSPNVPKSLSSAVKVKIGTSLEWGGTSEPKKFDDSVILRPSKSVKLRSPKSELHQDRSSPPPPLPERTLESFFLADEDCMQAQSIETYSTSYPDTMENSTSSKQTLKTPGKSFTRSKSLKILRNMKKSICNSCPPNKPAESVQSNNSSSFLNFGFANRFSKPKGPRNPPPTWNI

[6] = target: Prothrombin (Bos taurus, UniProt P00735); assay: thrombin protease inhibitors – biochemical, fluorescence polarization, uHTS hits, dose response (AID 602369); assay type: functional
[7] = target: T2, Low molecular weight phosphotyrosine protein phosphatase (Homo sapiens, UniProt P24666); assay type: functional; conditions: read-out: IC50_Mean
T2 sequence (P24666 whole entry): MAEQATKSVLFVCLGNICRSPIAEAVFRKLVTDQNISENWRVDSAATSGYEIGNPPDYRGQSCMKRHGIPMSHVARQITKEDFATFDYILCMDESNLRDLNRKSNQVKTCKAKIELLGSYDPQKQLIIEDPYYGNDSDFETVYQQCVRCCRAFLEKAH

[8] = target: T3, Carboxy-terminal domain RNA polymerase II polypeptide A small phosphatase 1 (Homo sapiens, UniProt Q9GZU7); assay: CTDSP1 inhibitors, concentration-response, biochemical, absorbance readout, ultra-high-throughput screen actives (AID 540297); assay type: functional
T3 sequence (Q9GZU7 whole entry): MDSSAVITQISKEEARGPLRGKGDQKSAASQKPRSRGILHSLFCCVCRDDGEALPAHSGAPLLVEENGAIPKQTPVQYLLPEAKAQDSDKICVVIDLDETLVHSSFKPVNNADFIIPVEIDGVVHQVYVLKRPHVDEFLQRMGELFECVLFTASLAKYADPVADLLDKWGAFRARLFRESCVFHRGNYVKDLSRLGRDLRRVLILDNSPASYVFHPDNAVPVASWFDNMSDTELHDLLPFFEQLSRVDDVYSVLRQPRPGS

[9] = target: T2, Low molecular weight phosphotyrosine protein phosphatase; assay type: functional; conditions: read-out: IC50_Mean; remark: listed apart in the source
[10] = activation of miR-122 Renilla sensor silencing – cell-based, Huh7 psiCHECK-miR122, Renilla luciferase, cherry-picked, dose response (AID 651956); assay type: functional;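 further: huh7 hepatoma cells stably carrying a psiCHECK-2 miR-122 sensor plasmid; renilla luciferase signal reporting endogenous miR-122 activity after 48 h compound exposure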

Sequence of Mu-type opioid receptor (P35372 whole entry): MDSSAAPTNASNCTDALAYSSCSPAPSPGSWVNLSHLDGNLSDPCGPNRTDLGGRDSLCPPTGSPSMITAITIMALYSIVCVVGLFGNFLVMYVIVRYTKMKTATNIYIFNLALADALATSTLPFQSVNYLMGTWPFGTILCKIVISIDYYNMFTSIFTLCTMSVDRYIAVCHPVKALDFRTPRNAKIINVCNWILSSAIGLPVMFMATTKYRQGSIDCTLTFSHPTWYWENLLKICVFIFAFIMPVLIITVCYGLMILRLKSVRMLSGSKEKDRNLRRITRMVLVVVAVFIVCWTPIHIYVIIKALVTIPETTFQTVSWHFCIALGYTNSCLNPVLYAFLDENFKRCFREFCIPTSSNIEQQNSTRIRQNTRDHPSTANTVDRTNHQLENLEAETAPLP
Sequence of 5-hydroxytryptamine receptor 2A (P35363 whole entry): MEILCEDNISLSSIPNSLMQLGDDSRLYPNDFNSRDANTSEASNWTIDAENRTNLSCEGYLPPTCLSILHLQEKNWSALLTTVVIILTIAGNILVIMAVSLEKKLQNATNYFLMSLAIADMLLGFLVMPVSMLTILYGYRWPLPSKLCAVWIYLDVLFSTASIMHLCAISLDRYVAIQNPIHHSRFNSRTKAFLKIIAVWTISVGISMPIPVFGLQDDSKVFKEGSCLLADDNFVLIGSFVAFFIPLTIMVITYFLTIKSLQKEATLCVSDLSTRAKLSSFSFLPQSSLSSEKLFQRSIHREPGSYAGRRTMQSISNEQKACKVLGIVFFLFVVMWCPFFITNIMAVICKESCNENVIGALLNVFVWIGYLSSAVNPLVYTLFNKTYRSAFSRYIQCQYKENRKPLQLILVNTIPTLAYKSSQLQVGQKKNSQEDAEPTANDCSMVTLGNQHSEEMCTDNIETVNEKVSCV
Sequence of 26S proteasome non-ATPase regulatory subunit 14 (O00487 whole entry): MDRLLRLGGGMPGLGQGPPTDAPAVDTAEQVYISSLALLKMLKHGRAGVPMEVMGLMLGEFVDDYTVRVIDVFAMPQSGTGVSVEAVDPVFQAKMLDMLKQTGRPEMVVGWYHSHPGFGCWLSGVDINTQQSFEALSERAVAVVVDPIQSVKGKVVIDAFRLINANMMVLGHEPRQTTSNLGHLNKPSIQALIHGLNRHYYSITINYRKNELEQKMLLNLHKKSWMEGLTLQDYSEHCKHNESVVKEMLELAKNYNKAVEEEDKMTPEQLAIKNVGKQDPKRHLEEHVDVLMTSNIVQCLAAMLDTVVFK
Sequence of 72 kDa type IV collagenase (P08253 whole entry, the tested form may be a part): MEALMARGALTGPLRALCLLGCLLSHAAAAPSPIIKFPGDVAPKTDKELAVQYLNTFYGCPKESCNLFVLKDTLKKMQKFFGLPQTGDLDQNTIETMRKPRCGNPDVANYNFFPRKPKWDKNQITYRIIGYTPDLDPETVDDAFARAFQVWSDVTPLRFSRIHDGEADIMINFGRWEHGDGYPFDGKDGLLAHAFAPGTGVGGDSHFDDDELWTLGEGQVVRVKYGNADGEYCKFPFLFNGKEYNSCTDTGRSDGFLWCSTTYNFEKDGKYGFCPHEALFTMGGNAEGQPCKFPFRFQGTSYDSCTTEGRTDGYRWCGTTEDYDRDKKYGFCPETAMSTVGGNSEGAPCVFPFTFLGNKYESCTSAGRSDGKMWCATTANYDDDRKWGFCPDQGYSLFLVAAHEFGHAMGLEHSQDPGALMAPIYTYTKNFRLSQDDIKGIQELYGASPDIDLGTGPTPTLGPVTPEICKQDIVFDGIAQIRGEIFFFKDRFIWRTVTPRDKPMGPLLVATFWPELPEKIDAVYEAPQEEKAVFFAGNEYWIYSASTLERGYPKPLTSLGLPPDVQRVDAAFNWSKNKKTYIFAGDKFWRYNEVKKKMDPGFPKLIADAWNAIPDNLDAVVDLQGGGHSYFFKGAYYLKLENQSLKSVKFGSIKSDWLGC

EC50 [1]: 92.5 µM (inactive)
EC50 [2]: 76.1 µM (inactive)
SMILES: Cc1ccc(C(=O)N/C(=C/c2ccccc2)C(=O)NC(Cc2ccccc2)C(=O)O)cc1 (stereo not given)

IC50 [3]: 17.9 µM (active)
IC50 [4]: 12 µM (active)
IC50 [5]: 29 µM (inactive)
IC50 [6]: 61.6 µM (active)
IC50 [7]: 12 µM (active)
IC50 [8]: 3.73 µM (active)
IC50 [9]: 15.8 µM (active)
SMILES: O=C(/C=C/c1ccccc1Cl)Nc1ccc2c(c1)C(=O)NC2=O

SMILES: CNC(=O)C[C@H]1CC[C@@H]2[C@@H](COc3ccc(NC(=O)Nc4ccc(Cl)cc4)cc3C(=O)N2C)O1
AC50 [10]: 29 µM (active)
